The NIST ThermoML archive (doi:10.1021/acs.jced.8b01048)

Experiments:
[1] = xn = mol fraction of the nth substance listed; settings: 100 kPa, Liquid, Vibrating tube method
[2] = 100 kPa, Liquid, Vibrating tube method

CC(=O)[O-].CCn1cc[n+](C)c1 [1-ethyl-3-methylimidazolium acetate] + O
[1], x2 = 0.018
Settings	mass density [kg/m3]
293.15 K	1101.7
303.15 K	1095.6
313.15 K	1089.6
323.15 K	1083.7
333.15 K	1077.7
343.15 K	1071.8
353.15 K	1065.9
363.15 K	1060
373.15 K	1054.2

CC(=O)[O-].CCn1cc[n+](C)c1 [1-ethyl-3-methylimidazolium acetate]
[2]
Settings	mass density [kg/m3]
293.15 K	1101.7
303.15 K	1095.6
313.15 K	1089.6
323.15 K	1083.7
333.15 K	1077.7
343.15 K	1071.8
353.15 K	1065.9
363.15 K	1060
373.15 K	1054.2

C[S+](C)[O-] [dimethyl sulfoxide]
[2]
Settings	mass density [kg/m3]
293.15 K	1100.2
303.15 K	1090.2
313.15 K	1080.4
323.15 K	1070.2
333.15 K	1060.3
343.15 K	1050.2
353.15 K	1040.2
363.15 K	1029.9
373.15 K	1019.8

CC(=O)[O-].C[N+](C)(C)CCO [choline acetate] + C[S+](C)[O-]
mass density [kg/m3], [1]
Settings	293.15 K	303.15 K	313.15 K	323.15 K	333.15 K	343.15 K	353.15 K	363.15 K	373.15 K
x2 = 0.503	–	–	–	–	–	1067.3	1060.8	1054.6	1048.4
x2 = 0.598	–	–	–	–	1073.6	1066.7	1059.8	1053	1046.4
x2 = 0.701	–	–	–	1079.6	1072.3	1065	1057.6	1050.4	1043.3
x2 = 0.799	–	–	1086	1077.9	1070	1061.8	1053.8	1045.6	1037.6
x2 = 0.899	1102.7	1093.9	1085.1	1076.3	1067.4	1058.6	1049.8	1040.9	1032.3

C[S+](C)[O-] [dimethyl sulfoxide] + CC(=O)[O-].CCn1cc[n+](C)c1
[1], x1 = 1
Settings	mass density [kg/m3]
293.15 K	1100.2
303.15 K	1090.2
313.15 K	1080.4
323.15 K	1070.2
333.15 K	1060.3
343.15 K	1050.2
353.15 K	1040.2
363.15 K	1029.9
373.15 K	1019.8

C[S+](C)[O-] [dimethyl sulfoxide] + O
[1], x1 = 0.998
Settings	mass density [kg/m3]
293.15 K	1100.2
303.15 K	1090.2
313.15 K	1080.4
323.15 K	1070.2
333.15 K	1060.3
343.15 K	1050.2
353.15 K	1040.2
363.15 K	1029.9
373.15 K	1019.8
